From patent publication US20260174875A1 (Novo Nordisk A/S, priority 2023, published 2026)
Read-outs that look alike come from different tables or passages of the source. Numbered stars: 1 amine (or outer) side, 2 acyl side, 3 side chain; on linkers, the order of the positions; unused ones are H or OH. Square brackets hold non-standard residues; d marks the D form. Side chains are listed from the residue outwards. * marks the point of attachment. C20 diacid = O=C(O)CCCCCCCCCCCCCCCCCCC(=O)*; C18 diacid = O=C(O)CCCCCCCCCCCCCCCCC(=O)*; C16 diacid = O=C(O)CCCCCCCCCCCCCCC(=O)*; γGlu = O=C(O)[C@H](CCC(=O)[*:2])N[*:1]; AEEA = NCCOCCOCC(=O)O; Aib = CC(C)(N)C(=O)O

Key:
Assay type in all cases: cell-based
[1] = molecular target: T1, human GLP-1 receptor (hGLP-1R) (Homo sapiens, UniProt P43220); assay: GLP-1 receptor assay, method A (CRE-luciferase reporter, BHK cells)
T1 construct: expressed in transfected cells
Method: (§1) To assess how the activation of the receptors is potentially influenced by the presence of human serum albumin (HSA), the in vitro assays were performed in the absence of HSA and presence of 1% (w/v) HSA.
Cells at approximately 80-90% confluence were washed once in PBS (Gibco 14190-094) and loosened from the cell flasks with Versene (Gibco, 15040-033). […] Cells were aliquoted and stored at −180° C. until use.
(§2) The assay buffer consisted of DMEM without phenol red (Gibco, 11880-028) supplemented with 1× GlutaMAX (Gibco, 35050-038), 10 mM HEPES (Gibco, 15630-056), 1% (w/v) ovalbumin (Sigma, A5503) and 0.1% (v/v) Pluronic F-68 (Gibco, 24040-032) either with HSA or without HSA (Sigma, A9511).
Frozen stocks of hGLP-1R BHK CRE-Luc cells were thawed in a 37° C. water bath, washed once in PBS (Gibco 14190-094) and diluted to 1.5×10^6 (1.5E+6) cells/mL in assay buffer with or without 2% (w/v) HSA (Sigma, A9511). […] The assay plates were incubated for 3 hours at 37° C. in 5% CO2, left at room temperature for 5 minutes after which 100 μL steadylite Plus™ (PerkinElmer/Revvity, 6066759) was added to each well. Plates were sealed and incubated at room temperature with gentle shaking for 30 minutes while protected from light. Luminescence was detected on a luminescence plate reader e.g., a Synergy 2 (BioTek).

[2] = molecular target: T2, human GIP receptor (hGIPR) (Homo sapiens, UniProt P48546); assay: GIP receptor assay, method A (CRE-luciferase reporter, BHK cells)
T2 construct: expressed in transfected cells
T2 sequence (P48546 22-466): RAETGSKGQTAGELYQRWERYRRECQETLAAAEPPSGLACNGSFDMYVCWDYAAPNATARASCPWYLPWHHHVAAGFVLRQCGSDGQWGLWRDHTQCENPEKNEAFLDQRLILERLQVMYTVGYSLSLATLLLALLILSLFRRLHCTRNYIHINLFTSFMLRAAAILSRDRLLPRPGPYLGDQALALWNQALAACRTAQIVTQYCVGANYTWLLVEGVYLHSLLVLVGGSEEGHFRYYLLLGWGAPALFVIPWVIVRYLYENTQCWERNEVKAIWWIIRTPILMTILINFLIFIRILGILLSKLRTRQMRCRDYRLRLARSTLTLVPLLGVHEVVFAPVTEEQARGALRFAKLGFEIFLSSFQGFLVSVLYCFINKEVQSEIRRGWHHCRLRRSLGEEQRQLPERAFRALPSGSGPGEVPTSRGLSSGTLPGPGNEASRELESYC
Method: To assess how the activation of the receptors is potentially influenced by the presence of human serum albumin (HSA), the in vitro assays were performed in the absence of HSA and presence of 1% (w/v) HSA. Unless stated otherwise the reference to the “GIP receptor assay as described in Example 4” throughout the specification shall refer to the described herein assay procedure method A (hGIPR assay) in the absence of HSA.
Activation of the human GIP receptor leads to increased intra-cellular concentrations of cyclic AMP (cAMP) and the consequent transcription activation from promoters containing multiple copies of the cAMP response element (CRE). It is thus possible to measure GIP receptor activity using a CRE-luciferase reporter gene introduced into Baby Hamster Kidney (BHK) cells co-expressing the human GIP receptor.
Cells at about 80-90% confluency were washed once with PBS (Gibco 14190-094) and detached from the cell flasks with Versene (Gibco, 15040-066). After centrifugation, the cells were counted, resuspended and diluted to approximately 1.5-3.0×10^6 (1.5E+6 to 3.0E+6) cells/mL in Recovery Cell Culture Freezing Medium (Gibco, 12648-010) and stored at −180° C. in suitable aliquots until use.
as §2
On the day before the assay hGIPR BHK Cre-Luc cells were thawed and plated out in 96 well Culture Plates (PerkinElmer/Revvity, 6005680) at 5.0×10^3 (5.0E+3) cells/well in growth medium as described above. The plates were then incubated for 21-23 hours at 37° C. with 5% CO2. On the day of the assay GLP-1-/GIP-/amylin-receptor tri-agonists or reference compounds were diluted in assay buffer using a 7-point, 10-fold titration plus a blank (absence of compound). Each compound was diluted and tested in duplicates in each experiment. In the plates containing the cells the growth medium was removed, and cells were washed twice with 100 μL PBS (Gibco 14190-094). 50 μL of the test compound dilutions were added to the plates containing cells preceded by 50 μL assay buffer with or without 2% (w/v) HSA (Sigma, A9511). The cell plates were incubated for 3 hours in a 5% CO2 incubator at 37° C. The plates were then transferred to room temperature followed by addition of 100 μL steadylite Plus™ (PerkinElmer/Revvity, 6066759). The plates were sealed and shaken for 30 minutes at room temperature while protected from light. Finally, luminescence (as an indicator of receptor activation) was measured on a Mithras reader (Berthold Technologies, DE). The EC50-values [pM] were calculated by non-linear curve fitting applying a four-parameter logistic model (Hill slope=“shared value for all datasets”) using GraphPad Prism (GraphPad Software, Boston, MA, USA).

[3] = molecular target: T3, human amylin receptor (hAMYR3) (Homo sapiens, UniProt O60896+P30988); assay: Amylin receptor assay, method A (CRE-luciferase reporter, BHK cells)
T3 construct: host or cells: BHK cells (Hollex-1 line expressing hCTR(a) and CRE-Luc), further transfected with human RAMP3
Method: as §1
It is thus possible to measure hAMYR3 activity using a CRE-luciferase reporter gene introduced into Baby Hamster Kidney (BHK) cells co-expressing the hAMYR3.
The cell line was further transfected with human receptor modifying protein 3 (RAMP3) using standard methods.
After centrifugation, the cell pellet was resuspended and diluted to approximately 2.5-4.0×10^6 (2.5E+6 to 4.0E+6) cells/mL in Recovery™ Cell Culture Freezing Medium (Gibco, 12648-010). Cells were aliquoted and stored at −180° C. until use.
The assay buffer consisted of DMEM without phenol red (Gibco, 11880-028) supplemented with 1× GlutaMAX (Gibco, 35050-038), 10 mM HEPES (Gibco, 15630-056) and 1% (w/v) ovalbumin (Sigma, A5503) either with or without 0.1% (v/v) Pluronic F-68 (Gibco, 24040-032) and either with or without HSA (Sigma, A9511).
The plate was incubated over night at 37° C. in 5% CO2. […] Luminescence was detected on a luminescence plate reader e.g., a Synergy 2 (BioTek).

[4] = method A, absence of HSA, read-out: hGLP-1R Potency, no HSA, EC50
[5] = method A, absence of HSA, read-out: hGIPR Potency, no HSA, EC50
[6] = method A, absence of HSA, read-out: hAMYR3 Potency, no HSA, EC50
[7] = hGLP-1R Potency, 1% HSA, EC50, method A, in the presence of 1% HSA
[8] = hGIPR Potency, 1% HSA, EC50, method A, in the presence of 1% HSA
[9] = hAMYR3 Potency, 1% HSA, EC50, method A, in the presence of 1% HSA

T1 sequence (P43220 24-463): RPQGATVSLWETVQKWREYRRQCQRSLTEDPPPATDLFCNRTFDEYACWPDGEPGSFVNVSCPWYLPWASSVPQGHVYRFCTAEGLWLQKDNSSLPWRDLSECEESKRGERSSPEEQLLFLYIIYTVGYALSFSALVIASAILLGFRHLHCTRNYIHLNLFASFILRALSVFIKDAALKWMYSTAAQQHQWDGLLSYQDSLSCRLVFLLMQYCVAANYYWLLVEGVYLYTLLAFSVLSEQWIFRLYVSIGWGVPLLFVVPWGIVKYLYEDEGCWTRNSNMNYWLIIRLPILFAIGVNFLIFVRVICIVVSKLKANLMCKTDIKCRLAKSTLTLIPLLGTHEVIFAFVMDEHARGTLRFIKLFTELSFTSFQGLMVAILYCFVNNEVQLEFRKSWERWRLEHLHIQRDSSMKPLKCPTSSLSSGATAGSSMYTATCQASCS
T3 sequence (P30988 25-474): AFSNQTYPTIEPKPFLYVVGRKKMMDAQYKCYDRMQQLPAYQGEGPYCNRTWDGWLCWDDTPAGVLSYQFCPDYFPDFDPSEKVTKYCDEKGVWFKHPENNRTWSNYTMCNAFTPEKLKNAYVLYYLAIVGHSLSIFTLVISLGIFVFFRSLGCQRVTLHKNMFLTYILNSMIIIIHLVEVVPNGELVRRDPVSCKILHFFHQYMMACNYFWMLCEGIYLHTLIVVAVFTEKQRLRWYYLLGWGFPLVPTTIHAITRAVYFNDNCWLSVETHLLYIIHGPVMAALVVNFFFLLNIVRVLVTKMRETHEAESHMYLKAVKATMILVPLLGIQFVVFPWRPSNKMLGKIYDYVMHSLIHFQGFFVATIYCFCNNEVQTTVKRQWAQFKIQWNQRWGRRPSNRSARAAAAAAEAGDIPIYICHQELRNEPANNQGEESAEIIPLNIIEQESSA
T3 sequence (O60896 24-148): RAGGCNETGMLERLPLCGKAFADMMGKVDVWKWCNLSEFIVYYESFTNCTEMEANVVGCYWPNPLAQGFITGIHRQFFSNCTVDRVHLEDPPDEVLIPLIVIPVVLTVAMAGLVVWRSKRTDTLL

EC50 [1, 4]	EC50 [2, 5]	EC50 [3, 6]	EC50 [1, 7]	EC50 [2, 8]	EC50 [3, 9]	Substance
0.0406 nM	0.00482 nM	0.00365 nM				Y[Aib]EGTFTSDYSILLEEQAAREFIEWLLAGGPSK([AEEA-AEEA-γGlu-C16 diacid])GASELSTAALGRLSAELHRLATLPRTETGSGSP-NH2 [Compound 20]
0.0237 nM	0.00162 nM	0.00575 nM	1.93 nM	0.352 nM	0.14 nM	Y[Aib]EGTFTSDYSILLEEQAAREFIEWLLAGGPSK([AEEA-AEEA-γGlu-C18 diacid])GGQEPGQEPGEASHLSTAQTQRLSAELHELATLPRTETGSGSP-NH2 [Compound 39]
0.0041 nM	0.00387 nM	0.00307 nM	0.0139 nM	0.00876 nM	0.0931 nM	H[Aib]HGTFTSDYSILLEEQAAREFIEWLLAGGPSSGALQAPGQAPGASHLSTAQTARLSAELHRLATLPK([AEEA-AEEA-γGlu-C18 diacid])TETGSGSP-NH2 [Compound 107]
0.0133 nM	0.00258 nM	0.0023 nM	0.0431 nM	0.0112 nM	0.108 nM	Y[Aib]EGTFTSDYSILLEEQAAREFIEWLLAGGPSSGAGQAPGQAPLASHLSTAQTARLSAELHK([AEEA-AEEA-γGlu-C18 diacid])LATLPRTETGSGSP-NH2 [Compound 98]
0.096 nM	0.0035 nM	0.00228 nM				Y[Aib]EGTFTSDYSILLEEQAAREFIEWLLAGGPSK([AEEA-AEEA-γGlu-C18 diacid])GEASELSTAALARLSAELHRLATLPRTETGSGSP-NH2 [Compound 28]
0.0613 nM	0.00801 nM	0.00342 nM				Y[Aib]EGTFTSDYSILLEEQAAREFIEWLLAGGPSSK([γGlu-C20 diacid])APPPSGGGEASELSTAALGRLSAELHRLATLPRTETGSGSP-NH2 [Compound 42]
0.00348 nM	0.00589 nM	0.00453 nM	0.0184 nM	0.0191 nM	0.0594 nM	H[Aib]HGTFTSDYSILLEEQAAREFIEWLLAGGPSRGAPPPSGGGEASELSTAALGRLSAELHK([AEEA-AEEA-γGlu-C18 diacid])LATLPRTETGSGSP-NH2 [Compound 70]
0.0159 nM	0.00366 nM	0.00333 nM	0.0348 nM	0.0122 nM	0.0664 nM	Y[Aib]EGTFTSDYSILLEEQAAREFIEWLLAGGPSSGAGQAPGQAPGASHLSTAQTQRLSAELHRLK([AEEA-AEEA-AEEA-γGlu-C18 diacid])TLPRTETGSGSP-NH2 [Compound 111]
0.0944 nM	0.00606 nM	0.00385 nM	0.173 nM	0.0283 nM	0.191 nM	Y[Aib]EGTFTSDYSILLEEQAAREFIEWLLAGGPSSGALAQTLAQTLASHLSTAQTQRLSAELHK([AEEA-AEEA-γGlu-C20 diacid])LATLPRTETGSGSP-NH2 [Compound 60]
0.00333 nM	0.0048 nM	0.00207 nM	0.0111 nM	0.0103 nM	0.0312 nM	H[Aib]HGTFTSDYSILLEEQAAREFIEWLLAGGPSSGALQAPGQAPGASHLSTAQTARLSAELHRLK([AEEA-AEEA-γGlu-C18 diacid])TLPRTETGSGSP-NH2 [Compound 106]
0.0648 nM	0.00702 nM	0.0032 nM	0.105 nM	0.054 nM	0.0785 nM	Y[Aib]EGTFTSDYSILLEEQAAREFIEWLLAGGPSSGALAQTLAQTLASHLSTAQTQRLSAELHK([AEEA-AEEA-γGlu-C18 diacid])LATLPRTETGSGSP-NH2 [Compound 48]
0.00524 nM	0.00314 nM	0.00242 nM	0.0331 nM	0.0133 nM	0.0736 nM	H[Aib]HGTFTSDYSILLEEQAAREFIEWLLAGGPSSGAGQAPGQAPGASHLSTAQTARLSAELHK([AEEA-AEEA-γGlu-C18 diacid])LATLPRTETGSGSP-NH2 [Compound 103]
0.0153 nM	0.0012 nM	0.00517 nM				Y[Aib]EGTFTSDYSILLEEQAAREFIEWLLAGGPSK([AEEA-AEEA-γGlu-C18 diacid])GALAQTLGTNEASELSTAALGRLSAELHELATLPRTETGSGSP-NH2 [Compound 23]
0.00457 nM	0.00401 nM	0.00248 nM	0.015 nM	0.0115 nM	0.0599 nM	H[Aib]HGTFTSDYSILLEEQAAREFIEWLLAGGPSSGALQAPGQAPLASHLSTAQTARLSAELHK([AEEA-AEEA-γGlu-C18 diacid])LATLPRTETGSGSP-NH2 [Compound 108]
